Reference: patent publication US10434138B2, “Formulations” (Sublimity Therapeutics Limited, priority 2013, dated 2019)
Where a name gives a salt, the structure may show the parent alone. Read-outs that look alike come from different tables or passages of the source.

What was measured:
[1] = cited from earlier work
[2] = conversion of the g/L value

solubility in water [2]: ~0.8%
Compound: NNc1nncc2ccccc12 [Hydralazine HCl]
solubility in water [1]: approximately 8 g/L
